From paper PMC4703832, “Haem-activated promiscuous targeting of artemisinin in Plasmodium falciparum” (Nature Communications, 2015)

Key:
PyrK (pyruvate kinase) = biological target: T1, PyrK (pyruvate kinase) (Plasmodium falciparum, UniProt C6KTA4); assay: pyruvate kinase inhibition assay, absorbance at […] nm; type: biochemical; conditions: 0-80 uM artesunate, haemin 200 uM and L-ascorbic acid 200 uM, 4 h preincubation at 37 °C; covalent, haem-activated
T1 construct: gene PF3D7_0626800
T1 sequence (C6KTA4 1-511): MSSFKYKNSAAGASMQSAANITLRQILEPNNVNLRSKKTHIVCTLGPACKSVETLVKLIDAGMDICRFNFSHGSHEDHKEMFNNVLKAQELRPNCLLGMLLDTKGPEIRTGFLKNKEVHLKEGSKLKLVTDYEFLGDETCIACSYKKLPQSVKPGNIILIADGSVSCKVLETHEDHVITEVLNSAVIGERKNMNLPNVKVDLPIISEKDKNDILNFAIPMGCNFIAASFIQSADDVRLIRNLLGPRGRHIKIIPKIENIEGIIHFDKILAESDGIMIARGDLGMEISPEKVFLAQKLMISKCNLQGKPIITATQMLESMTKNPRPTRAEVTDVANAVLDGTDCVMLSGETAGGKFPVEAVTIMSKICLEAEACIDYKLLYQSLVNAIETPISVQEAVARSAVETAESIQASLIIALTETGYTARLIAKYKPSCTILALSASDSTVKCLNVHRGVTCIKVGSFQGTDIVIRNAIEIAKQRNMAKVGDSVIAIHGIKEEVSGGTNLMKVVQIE

[1] = biological target: T2, LDH (L-lactate dehydrogenase) (Plasmodium falciparum, UniProt Q76NM3); assay: LDH inhibition assay, absorbance at […] nm; type: biochemical; conditions: 0-80 uM artesunate, haemin 200 uM and L-ascorbic acid 200 uM, 4 h preincubation at 37 °C; covalent, haem-activated
T2 construct: gene PF3D7_1324900; gene amplified from 3D7 genomic DNA, pET28a, E. coli BL21(DE3)-star, Ni-NTA purified
T2 sequence (Q76NM3 1-316): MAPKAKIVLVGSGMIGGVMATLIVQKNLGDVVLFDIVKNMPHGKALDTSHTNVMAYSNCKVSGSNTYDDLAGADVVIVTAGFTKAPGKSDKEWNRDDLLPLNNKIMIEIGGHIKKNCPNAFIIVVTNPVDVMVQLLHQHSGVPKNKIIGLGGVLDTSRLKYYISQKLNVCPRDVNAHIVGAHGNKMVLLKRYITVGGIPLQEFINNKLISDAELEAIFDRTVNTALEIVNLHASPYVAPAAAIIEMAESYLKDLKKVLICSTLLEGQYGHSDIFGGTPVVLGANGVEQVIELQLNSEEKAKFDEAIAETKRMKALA

C[C@H]1[C@H](OC(=O)CCC(=O)O)O[C@@H]2O[C@@]3(C)CC[C@H]4[C@H](C)CC[C@@H]1[C@@]24OO3 [Arts, artesunate]
dose-dependent inhibition (PyrK (pyruvate kinase)): Functional assays showed that artesunate inhibits their enzymatic activities in a dose-dependent manner | dose-dependent inhibition [1]: Functional assays showed that artesunate inhibits their enzymatic activities in a dose-dependent manner
